Laboratory results published in patent US20240050526A1, “CATH2 DERIVATIVES FOR STIMULATING INNATE IMMUNE MEMORY” (priority 2020, published 2024).
Ends that are not written are not given here.

Columns and labels:
Assay type in all cases: cell-based, human
[1] = test system: dTHP-1 cells; test: DCATH-2 training of dTHP-1 cells in the presence of pathway inhibitors; settings: 1 μg/ml Pam3CSK4; for Pam3CSK-induced TNFα production in the presence of inhibitor: reference level of FIG. 4a, means, SEM, 3 experiments; for effect of inhibitor on DCATH-2 training (amplified Pam3CSK4-induced TNFα production): inhibitor 1 h before and during priming with 5 μM DCATH-2, 3 days rest
Procedure: (§1) THP-1 cells were cultured in Iscove Modified Dulbecco Media (IMDM, Gibco) containing Glutamax-I, sodium pyruvate, 10% fetal calf serum at 37° C. and 5% CO2. For differentiation to macrophage-like cells, THP-1 cells were grown in IMDM/FCS medium containing 8 of 100 nM PMA and seeded in 96 wells (5×10^4 cells/well), 24 wells (3×10^5 cells/well) or 6 wells plates (1×10^6 cells/well) during 48 h. Subsequently, dTHP-1 were washed with pre-warmed IMDM/FCS, left overnight to rest and primed during 1 to 24 h with 2-10 μM peptides of fresh IMDM/FCS medium, washed 3 times in medium. After 3 days rest cells were stimulated with various stimuli: S. minnesota LPS (10 ng/ml), E. coli LPS (10 or 50 ng/ml), Pam3CSK4 (1 μg/ml) or Pam2CSK4 (1 μg/ml). After 24 h supernatants were collected and stored at −20° C. For inhibition, dTHP-1 cells were pre-incubated for 1 h before priming and during priming with rapamycin (10 nM), AICAR (50 nM), metformin (0.3 mM), wortmannin (1 μM), ascorbate (50 μM), SB203580 (10 μM), PD98059 (10 μM), SP600125 (10 μM), EGCG (40 μM), anacardic acid (50 μM), curcumin (10 μM), garcinol (10 μM), Bay-11-7085 (10 μM), MTA (1 mM), MM-102 (25 μM), suramin (50 μM), KN-62 (3 μM), nystatin (10 μg/ml), and chlorpromazine (10 μM).
(§2) TNFα, IL-6, CXCL10 and CCL5 production were measured using ELISA (R&D systems) following instructions of the manufacturer.

[2] = test system: dTHP-1 cells; test: Innate immune training of dTHP-1 cells by cathelicidin peptides, cytokine ELISA after TLR agonist re-stimulation; settings: priming 24 h with 10 μM peptide; 100 nM PMA dTHP-1 cells; 3 days rest; re-stimulated with 10 ng/ml Salmonella minnesota LPS
Procedure: as §1, §2
Extrapolating from the trained immunity experiments with human monocytes, we examined if mature cathelicidin peptides could induce trained immunity in TH P-1 cells, a human monocyte cell line. TH P-1 cells were differentiated with 100 nM or 8 nM phorbol 12-myristate 13-acetate (PMA) during 48 h washed 3 times and, after overnight rest, primed with 2-10 μM of chicken cathelicidin 2 (CATH-2), its full D-analog DCATH-2 or human cathelicidin LL-37 for 24 h. Subsequently, dTHP-1 cells were washed 3 times and re-stimulated after a 3-day rest period with TLR agonists (24 h) (FIG. 1a). […] Priming with 5 μM of its full-D-amino acid analog DCATH-2 amplified 2- to 3-fold the TNFα and IL-6 production in response to LPS stimulation. A minor response was found for priming with 10 μM LL-37, which amplified IL-6 production 1.4-fold in 100 nM differentiated cells.

[3] = test system: dTHP-1 cells; test: Confocal imaging of Tamra-labelled DCATH-2 uptake by dTHP-1 cells; settings: 1 h pre-incubation with inhibitor, 3 h priming with Tamra-DCATH-2
Procedure: 3×10^5 dTHP-1 cells were seeded on 8 mm coverslips in 24 wells plates and differentiated for 48 h with 100 nM PMA in 0.5 ml medium. Wells were washed 3 times, and cells were primed for 3 h with Tamra-labelled DCATH-2 (TD) or medium. For inhibition conditions, cells were pre-incubated before priming for 1 h with 3 μM KN-62, 50 μM suramin, 10 μM chlorpromazine, or 10 μg/ml nystatin. After priming, coverslips were washed 3 times with warm medium and fixated for 30 min in 4% paraformaldehyde solution (0.1 M phosphate buffer, pH 7.4). After staining of nuclei with Hoechst (Molecular probes) for 10 min, coverslips were mounted on glass slides using ProLong glass antifade mountant (Thermofisher, P36980). Confocal images were acquired on a Leica SPE-II using the 100×HCX PLAN APO (NA=1.4-0.7) objective. Imaging was performed using a quadruple band beam splitter for the 561 nm laser. Visualization of Hoechst stained dTHP-1 cells was done with a 405 nm (100 mW) Coherent Violet Cube laser. Image analysis was done using composite images of both channels. In brief, regions of interest were set manually using DIC for segmentation. To isolate puncta from background noise, a threshold was set for the Tamra channel and intensity and area of puncta were measured partially automated using a script.

Row | Compound | effect of inhibitor on DCATH-2 training (amplified Pam3CSK4-induced TNFα production) [1] | further results
1 | CO[C@H]1C[C@@H]2CC[C@@H](C)[C@@](O)(O2)C(=O)C(=O)N2CCCC[C@H]2C(=O)O[C@H]([C@H](C)C[C@@H]2CC[C@@H](O)[C@H](OC)C2)CC(=O)[C@H](C)/C=C(\C)[C@@H](O)[C@@H](OC)C(=O)[C@H](C)C[C@H](C)/C=C/C=C/C=C/1C [rapamycin] | – | Pam3CSK-induced TNFα production in the presence of inhibitor [1]: 318 ± 45 pg/mL
2 | CCCCCCCCCCCCCCCc1cccc(O)c1C(=O)O [anacardic acid] | abrogated | –
3 | RFGRFLRKIRRFRPKVTITIQGSARF-NH2 [CATH-2, chicken cathelicidin 2 peptide] | – | amplification of IL-6 production [2]: 1.8 fold
4 | COc1cc(/C=C/C(=O)CC(=O)/C=C/c2ccc(O)c(OC)c2)ccc1O [curcumin] | not by garcinol or curcumin | –
5 | LLGDFFRKSKEKIGKEFKRIVQRIKDFLRNLVPRTES [LL-37, human cathelicidin, reference compound] | – | amplification of IL-6 production [2]: 1.4 fold
6 | Cc1ccc(C(=O)Nc2ccc(S(=O)(=O)O)c3cc(S(=O)(=O)O)cc(S(=O)(=O)O)c23)cc1NC(=O)c1cccc(NC(=O)Nc2cccc(C(=O)Nc3cc(C(=O)Nc4ccc(S(=O)(=O)O)c5cc(S(=O)(=O)O)cc(S(=O)(=O)O)c45)ccc3C)c2)c1 [suramin] | completely impaired | effect of inhibitor on uptake of TAMRA-labelled DCATH-2 by dTHP-1 cells [3]: reduced uptake
7 | O=C1O[C@H]([C@@H](O)CO)C(O)=C1O [ascorbate] | – | Pam3CSK-induced TNFα production in the presence of inhibitor [1]: 421 ± 112 pg/mL
8 | O=C(O[C@@H]1Cc2c(O)cc(O)cc2O[C@@H]1c1cc(O)c(O)c(O)c1)c1cc(O)c(O)c(O)c1 [EGCG, epigallocatechin gallate] | abrogated | –
9 | NC(=O)c1ncn([C@@H]2O[C@H](COP(=O)(O)O)[C@@H](O)[C@H]2O)c1N [AICAR, 5-aminoimidazole-4-carboxamide ribonucleotide] | did not result in a significant reduction | Pam3CSK-induced TNFα production in the presence of inhibitor [1]: 335 ± 89 pg/mL
10 | C[S+]([O-])c1ccc(-c2nc(-c3ccncc3)c(-c3ccc(F)cc3)[nH]2)cc1 (stereo not shown) [SB203580] | completely blocked | –
11 | CN(C)CCCN1c2ccccc2Sc2ccc(Cl)cc21 [chlorpromazin, chlorpromazine] | not affected | effect of inhibitor on uptake of TAMRA-labelled DCATH-2 by dTHP-1 cells [3]: not affected
12 | CC(C)(C)c1ccc(S(=O)(=O)/C=C/C#N)cc1 [Bay-11-7085] | did not impair | –
13 | C[C@@H]1[C@H](O)[C@@H](C)/C=C/C=C/CC/C=C/C=C/C=C/C=C/C(O[C@H]2O[C@H](C)[C@@H](O)[C@H](N)[C@@H]2O)CC2O[C@](O)(CC(O)C(O)CCC(O)CC(O)CC(O)CC(=O)O[C@H]1C)CC(O)C2C(=O)O (stereo partly shown) [nystatin] | strongly impaired | effect of inhibitor on uptake of TAMRA-labelled DCATH-2 by dTHP-1 cells [3]: reduced uptake
14 | CCC(CC)(NC(=O)C(C)C)C(=O)N[C@@H](CCCN=C(N)N)C(=O)NC1(C(=O)NC(c2ccc(F)cc2)c2ccc(F)cc2)CCCC1 [MM-102] | not affected | –
15 | COc1cccc(-c2cc(=O)c3ccccc3o2)c1N [PD58059] | no effect | –
16 | COC[C@H]1OC(=O)c2coc3c2[C@@]1(C)C1=C(C3=O)[C@@H]2CCC(=O)[C@@]2(C)C[C@H]1OC(C)=O [wortmannin] | – | Pam3CSK-induced TNFα production in the presence of inhibitor [1]: 354 ± 135 pg/mL
17 | CN(C)C(=N)N=C(N)N [metformin] | did not result in a significant reduction | Pam3CSK-induced TNFα production in the presence of inhibitor [1]: 387 ± 99 pg/mL
18 | Oc1c2ccccc2c2c3c(cccc13)N=N2 [SP600125] | no effect | –
19 | CN([C@@H](Cc1ccc(OS(=O)(=O)c2cccc3cnccc23)cc1)C(=O)N1CCN(c2ccccc2)CC1)S(=O)(=O)c1cccc2cnccc12 [KN-62] | partially inhibited | effect of inhibitor on uptake of TAMRA-labelled DCATH-2 by dTHP-1 cells [3]: reduced uptake
